PubChem BioAssay AID250 (DTP/NCI, 2004)
Where “and” joins values, the source holds several entries; their conditions need not be identical. Equal values may be shown once. Toxic doses and inconclusive results are not listed.

System: BDF1 mice, L1210 leukemia sc, survival T/C
Assay: NCI In Vivo Anticancer Drug Screen. Data for tumor model L1210 Leukemia (subcutaneous) in B6D2F1 (BDF1) mice
Settings: higher = longer survival
Outline: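 Transplantable tumor-bearing mice; survival or tumor size recorded; result = T/C, treated vs vehicle control.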

## Nc1nc(=S)c2[nH]cnc2[nH]1
endpoint: median survival time, dose: 0.37 mg/kg/injection, schedule: Q01DX009 (sc), vehicle: other
  T/C: 100 % of control and 102 % of control
endpoint: median survival time, dose: 0.47 mg/kg/injection, schedule: Q01DX Z (sc), vehicle: methylcellulose (MC)
  T/C: 104 % of control and 110 % of control
endpoint: median survival time, dose: 0.65 mg/kg/injection, schedule: Q01DX Z (sc), vehicle: methylcellulose (MC)
  T/C: 100 % of control
endpoint: median survival time, dose: 0.75 mg/kg/injection, schedule: Q01DX009 (sc), vehicle: other
  T/C: 110 % of control and 111 % of control
endpoint: median survival time, dose: 0.78 mg/kg/injection, schedule: Q01DX Z (sc), vehicle: methylcellulose (MC)
  T/C: 100 % of control and 120 % of control
endpoint: median survival time, dose: 1.0 mg/kg/injection, schedule: Q01DX Z (sc), vehicle: other
  T/C: 100 % of control
endpoint: median survival time, dose: 1.08 mg/kg/injection, schedule: Q01DX Z (sc), vehicle: methylcellulose (MC)
  T/C: 109 % of control
endpoint: median survival time, dose: 1.3 mg/kg/injection, schedule: Q01DX Z (sc), vehicle: methylcellulose (MC)
  T/C: 118 % of control
endpoint: median survival time, dose: 1.5 mg/kg/injection, schedule: Q01DX009 (sc), vehicle: other
  T/C: 150 % of control
endpoint: median survival time, dose: 1.5 mg/kg/injection, schedule: Q## X009 (sc), vehicle: other
  T/C: 150 % of control
endpoint: median survival time, dose: 1.8 mg/kg/injection, schedule: Q01DX Z (oral), vehicle: methylcellulose (MC)
  T/C: 109 % of control
endpoint: median survival time, dose: 2.0 mg/kg/injection, schedule: Q02DX Z (sc), vehicle: other
  T/C: 118 % of control
endpoint: median survival time, dose: 2.16 mg/kg/injection, schedule: Q01DX Z (oral), vehicle: methylcellulose (MC)
  T/C: 109 % of control
endpoint: median survival time, dose: 2.5 mg/kg/injection, schedule: Q02DX009 (sc), vehicle: other
  T/C: 152 % of control
endpoint: median survival time, dose: 2.5 mg/kg/injection, schedule: Q02DX Z (sc), vehicle: other
  T/C: 155 % of control
endpoint: median survival time, dose: 3.0 mg/kg/injection, schedule: Q01DX009 (sc), vehicle: other
  T/C: 150 % of control and 152 % of control and 156 % of control
endpoint: median survival time, dose: 3.0 mg/kg/injection, schedule: Q01DX Z (oral), vehicle: methylcellulose (MC)
  T/C: 118 % of control
endpoint: median survival time, dose: 3.0 mg/kg/injection, schedule: Q01DX Z (sc), vehicle: methylcellulose (MC)
  T/C: 154 % of control
endpoint: median survival time, dose: 3.0 mg/kg/injection, schedule: Q## X009 (sc), vehicle: other
  T/C: 152 % of control
endpoint: median survival time, dose: 3.6 mg/kg/injection, schedule: Q01DX Z (oral), vehicle: methylcellulose (MC)
  T/C: 109 % of control
endpoint: median survival time, dose: 3.6 mg/kg/injection, schedule: Q01DX Z (sc), vehicle: methylcellulose (MC)
  T/C: 150 % of control
endpoint: median survival time, dose: 4.0 mg/kg/injection, schedule: Q02DX Z (sc), vehicle: other
  T/C: 159 % of control
endpoint: median survival time, dose: 5.0 mg/kg/injection, schedule: Q01DX Z (sc), vehicle: methylcellulose (MC)
  T/C: 154 % of control
endpoint: median survival time, dose: 5.0 mg/kg/injection, schedule: Q02DX009 (sc), vehicle: other
  T/C: 165 % of control
endpoint: median survival time, dose: 5.0 mg/kg/injection, schedule: Q02DX Z (sc), vehicle: other
  T/C: 172 % of control
endpoint: median survival time, dose: 6.0 mg/kg/injection, schedule: Q01DX009 (sc), vehicle: other
  T/C: 155 % of control and 162 % of control
endpoint: median survival time, dose: 6.0 mg/kg/injection, schedule: Q01DX Z (oral), vehicle: methylcellulose (MC)
  T/C: 113 % of control
endpoint: median survival time, dose: 6.0 mg/kg/injection, schedule: Q01DX Z (sc), vehicle: methylcellulose (MC)
  T/C: 150 % of control
endpoint: median survival time, dose: 8.0 mg/kg/injection, schedule: Q01DX Z (sc), vehicle: other
  T/C: 154 % of control
endpoint: median survival time, dose: 8.0 mg/kg/injection, schedule: Q02DX Z (sc), vehicle: other
  T/C: 154 % of control
endpoint: median survival time, dose: 8.4 mg/kg/injection, schedule: Q01DX Z (oral), vehicle: methylcellulose (MC)
  T/C: 163 % of control
endpoint: median survival time, dose: 10.0 mg/kg/injection, schedule: Q01DX Z (oral), vehicle: methylcellulose (MC)
  T/C: 118 % of control
endpoint: median survival time, dose: 10.0 mg/kg/injection, schedule: Q01DX Z (sc), vehicle: methylcellulose (MC)
  T/C: 150 % of control
endpoint: median survival time, dose: 10.0 mg/kg/injection, schedule: Q02DX009 (sc), vehicle: other
  T/C: 160 % of control
endpoint: median survival time, dose: 10.0 mg/kg/injection, schedule: Q02DX Z (sc), vehicle: other
  T/C: 166 % of control
endpoint: median survival time, dose: 16.0 mg/kg/injection, schedule: Q02DX Z (sc), vehicle: other
  T/C: 150 % of control
endpoint: median survival time, dose: 17.0 mg/kg/injection, schedule: Q01DX Z (oral), vehicle: methylcellulose (MC)
  T/C: 118 % of control
endpoint: median survival time, dose: 20.0 mg/kg/injection, schedule: Q02DX Z (sc), vehicle: other
  T/C: 150 % of control
endpoint: median survival time, dose: 28.0 mg/kg/injection, schedule: Q01DX Z (oral), vehicle: methylcellulose (MC)
  T/C: 104 % of control
endpoint: median survival time, dose: 32.0 mg/kg/injection, schedule: Q02DX Z (sc), vehicle: other
  T/C: 154 % of control
endpoint: median survival time, dose: 39.0 mg/kg/injection, schedule: Q01DX Z (oral), vehicle: methylcellulose (MC)
  T/C: 154 % of control
endpoint: median survival time, dose: 40.0 mg/kg/injection, schedule: Q02DX Z (sc), vehicle: other
  T/C: 155 % of control
endpoint: median survival time, dose: 47.0 mg/kg/injection, schedule: Q01DX Z (oral), vehicle: methylcellulose (MC)
  T/C: 109 % of control

## COc1cccc2c1C(=O)c1c(O)c3c(c(O)c1C2=O)CC(O)(C(C)=O)CC3OC1CC(N)C(O)C(C)O1 (stereo not drawn)
endpoint: median survival time, dose: 11.7 mg/kg/injection, schedule: Q04DX003 (ip), vehicle: saline
  T/C: 90 % of control
endpoint: median survival time, dose: 23.4 mg/kg/injection, schedule: Q04DX003 (ip), vehicle: saline
  T/C: 94 % of control
endpoint: median survival time, dose: 46.8 mg/kg/injection, schedule: Q04DX003 (ip), vehicle: saline
  T/C: 91 % of control
endpoint: median survival time, dose: 93.6 mg/kg/injection, schedule: Q04DX003 (ip), vehicle: saline
  T/C: 91 % of control
endpoint: median survival time, dose: 187.2 mg/kg/injection, schedule: Q04DX003 (ip), vehicle: saline
  T/C: 90 % of control

## O=C(Nc1ccc(C2=NCCN2)cc1)c1ccc(C(=O)Nc2ccc(C3=NCCN3)cc2)cc1
endpoint: median survival time, dose: 3.0 mg/kg/injection, schedule: Q01DX Z (sc), vehicle: saline
  T/C: 100 % of control
endpoint: median survival time, dose: 5.0 mg/kg/injection, schedule: Q01DX Z (sc), vehicle: saline
  T/C: 100 % of control and 104 % of control
endpoint: median survival time, dose: 8.4 mg/kg/injection, schedule: Q01DX Z (sc), vehicle: saline
  T/C: 109 % of control
endpoint: median survival time, dose: 14.0 mg/kg/injection, schedule: Q01DX Z (sc), vehicle: saline
  T/C: 104 % of control
endpoint: median survival time, dose: 23.0 mg/kg/injection, schedule: Q01DX Z (ip), vehicle: water
  T/C: 100 % of control
endpoint: median survival time, dose: 23.0 mg/kg/injection, schedule: Q01DX Z (sc), vehicle: saline
  T/C: 104 % of control and 109 % of control
endpoint: median survival time, dose: 39.0 mg/kg/injection, schedule: Q01DX Z (ip), vehicle: water
  T/C: 100 % of control
endpoint: median survival time, dose: 39.0 mg/kg/injection, schedule: Q01DX Z (sc), vehicle: saline
  T/C: 100 % of control
endpoint: median survival time, dose: 39.0 mg/kg/injection, schedule: Q01DX Z (sc), vehicle: water
  T/C: 100 % of control
endpoint: median survival time, dose: 65.0 mg/kg/injection, schedule: Q01DX Z (ip), vehicle: water
  T/C: 110 % of control
endpoint: median survival time, dose: 65.0 mg/kg/injection, schedule: Q01DX Z (sc), vehicle: saline
  T/C: 100 % of control and 104 % of control
endpoint: median survival time, dose: 108.0 mg/kg/injection, schedule: Q01DX Z (sc), vehicle: saline
  T/C: 100 % of control and 104 % of control
endpoint: median survival time, dose: 180.0 mg/kg/injection, schedule: Q01DX Z (ip), vehicle: water
  T/C: 115 % of control
endpoint: median survival time, dose: 180.0 mg/kg/injection, schedule: Q01DX Z (sc), vehicle: saline
  T/C: 104 % of control
endpoint: median survival time, dose: 200.0 mg/kg/injection, schedule: Q01DX Z (sc), vehicle: water
  T/C: 110 % of control and 100 % of control
endpoint: median survival time, dose: 300.0 mg/kg/injection, schedule: Q01DX Z (ip), vehicle: water
  T/C: 185 % of control
endpoint: median survival time, dose: 300.0 mg/kg/injection, schedule: Q01DX Z (sc), vehicle: saline
  T/C: 104 % of control
endpoint: median survival time, dose: 300.0 mg/kg/injection, schedule: Q01DX Z (sc), vehicle: water
  T/C: 100 % of control
endpoint: median survival time, dose: 400.0 mg/kg/injection, schedule: Q01DX Z (sc), vehicle: water
  T/C: 205 % of control and 105 % of control
endpoint: median survival time, dose: 800.0 mg/kg/injection, schedule: Q01DX Z (sc), vehicle: water
  T/C: 170 % of control and 220 % of control

## Nc1nc2c(c(=O)[nH]1)N=C(CNc1ccc(C(=O)NC(CCC(=O)O)C(=O)O)cc1)CN2 (stereo not drawn)
endpoint: mean survival time, dose: 1.0 mg/kg/injection, schedule: Q01DX009 (ip), vehicle: sodium bicarbonate
  T/C: 95 % of control
endpoint: mean survival time, dose: 2.0 mg/kg/injection, schedule: Q01DX009 (ip), vehicle: sodium bicarbonate
  T/C: 94 % of control
endpoint: mean survival time, dose: 4.0 mg/kg/injection, schedule: Q01DX009 (ip), vehicle: sodium bicarbonate
  T/C: 98 % of control
endpoint: mean survival time, dose: 4.0 mg/kg/injection, schedule: Q04DX003 (ip), vehicle: sodium bicarbonate
  T/C: 98 % of control
endpoint: mean survival time, dose: 8.0 mg/kg/injection, schedule: Q01DX009 (ip), vehicle: sodium bicarbonate
  T/C: 94 % of control
endpoint: mean survival time, dose: 8.0 mg/kg/injection, schedule: Q04DX003 (ip), vehicle: sodium bicarbonate
  T/C: 100 % of control
endpoint: mean survival time, dose: 16.0 mg/kg/injection, schedule: Q01DX009 (ip), vehicle: sodium bicarbonate
  T/C: 102 % of control
endpoint: mean survival time, dose: 16.0 mg/kg/injection, schedule: Q04DX003 (ip), vehicle: sodium bicarbonate
  T/C: 96 % of control
endpoint: mean survival time, dose: 32.0 mg/kg/injection, schedule: Q04DX003 (ip), vehicle: sodium bicarbonate
  T/C: 98 % of control
endpoint: mean survival time, dose: 64.0 mg/kg/injection, schedule: Q04DX003 (ip), vehicle: sodium bicarbonate
  T/C: 96 % of control
